Among the data in patent US20080175794A1, “Substituted Pyridazinyl- and Pyrimidinyl-Quinolin-4-Ylamine Analogues” (NEUROGEN CORPORATION, priority 2005, published 2008) are IC50 and Ki values, retold here.

Each structure is given as a SMILES string. Bounds are passed on as bounds.

The target of the first assay is T1, human capsaicin receptor (Homo sapiens, UniProt Q8NER1).
T1 construct: expressed in transfected cells
T1 sequence (Q8NER1 whole entry): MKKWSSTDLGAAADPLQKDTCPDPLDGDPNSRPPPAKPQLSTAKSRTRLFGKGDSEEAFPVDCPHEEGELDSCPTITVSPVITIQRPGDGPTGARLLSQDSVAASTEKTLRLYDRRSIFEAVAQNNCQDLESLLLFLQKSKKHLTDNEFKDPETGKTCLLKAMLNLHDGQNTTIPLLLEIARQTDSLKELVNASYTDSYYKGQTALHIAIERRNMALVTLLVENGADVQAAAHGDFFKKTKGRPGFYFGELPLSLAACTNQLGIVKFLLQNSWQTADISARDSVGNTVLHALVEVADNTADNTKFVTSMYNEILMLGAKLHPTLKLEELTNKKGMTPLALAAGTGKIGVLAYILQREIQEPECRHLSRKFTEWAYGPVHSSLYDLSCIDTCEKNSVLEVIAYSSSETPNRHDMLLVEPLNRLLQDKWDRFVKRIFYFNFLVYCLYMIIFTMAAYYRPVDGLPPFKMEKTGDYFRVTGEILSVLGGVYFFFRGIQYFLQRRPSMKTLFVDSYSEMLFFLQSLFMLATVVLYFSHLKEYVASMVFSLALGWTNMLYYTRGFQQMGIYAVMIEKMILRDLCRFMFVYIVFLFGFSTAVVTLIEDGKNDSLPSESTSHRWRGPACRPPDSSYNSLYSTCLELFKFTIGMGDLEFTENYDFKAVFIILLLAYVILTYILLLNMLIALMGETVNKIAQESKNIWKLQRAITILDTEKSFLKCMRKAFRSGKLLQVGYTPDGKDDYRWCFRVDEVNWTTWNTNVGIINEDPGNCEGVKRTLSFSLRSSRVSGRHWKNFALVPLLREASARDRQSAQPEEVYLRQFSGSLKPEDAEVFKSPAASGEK
Put plainly: Calcium mobilization assay, determination of antagonist activity (Example 6). Format: cell-based. The note with it: Table III; assay provided in Example 6; cells expressing human capsaicin receptor, capsaicin at EC50. Put shortly: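 Stable HEK293 clones expressing full-length human capsaicin receptor, loaded with Fluo-3 AM in KRH buffer pH 7.4 (1–2 h, 37 °C). Test compound (1–5 μM final) preincubated 0.5–6 h at room temperature in the dark, then capsaicin added at its EC50. FLIPR/Fluoroskan calcium signal; IC50 as concentration halving the capsaicin response.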
Background: Calcium flux is commonly read through the fluorescence of an indicator in the cells.
In general, IC50 refers to the point on the concentration scale where inhibition reaches its midpoint. In the case of `CC(O)CCNc1cc(C(F)(F)F)c(-c2cnc3c(Nc4ccc(C(F)(F)F)cn4)ccnc3n2)nn1` (stereo not shown) [Compound 174, 4-{[5-(trifluoromethyl)-6-(8-{[5-(trifluoromethyl)pyridin-2-yl]amino}pyrido[2,3-b]pyrazin-3-yl)pyridazin-3-yl]amino}butan-2-ol], the IC50 is < 1 µM.
Same read-out and setting: the same measure for `CN1CCN(c2cc(C(F)(F)F)c(-c3cnc4c(Nc5ccc(C(F)(F)F)cn5)ccnc4n3)nn2)CC1` [Compound 145, 3-[6-(4-methylpiperazin-1-yl)-4-(trifluoromethyl)pyridazin-3-yl]-N-[5-(trifluoromethyl)pyridin-2-yl]pyrido[2,3-b]pyrazin-8-amine]: < 1 µM; for `CC(C)Nc1cc(C(F)(F)F)c(-c2cnc3c(Nc4ccc(C(F)(F)F)cn4)ccnc3n2)nn1` [Compound 157, 3-[6-(isopropylamino)-4-(trifluoromethyl)pyridazin-3-yl]-N-[5-(trifluoromethyl)pyridin-2-yl]pyrido[2,3-b]pyrazin-8-amine]: < 1 µM; for `CN(CCO)c1cc(C(F)(F)F)c(-c2cnc3c(Nc4ccc(C(F)(F)F)cn4)ccnc3n2)nn1` [Compound 135, 2-{methyl[5-(trifluoromethyl)-6-(8-{[5-(trifluoromethyl)pyridin-2-yl]amino}pyrido[2,3-b]pyrazin-3-yl)pyridazin-3-yl]amino}ethanol]: < 1 µM.
The same measure, in the same setting: the same measure for `CCCCCNc1cc(C(F)(F)F)c(-c2cnc3c(Nc4ccc(C(F)(F)F)cn4)ccnc3n2)nn1` [Compound 153, 3-[6-(pentylamino)-4-(trifluoromethyl)pyridazin-3-yl]-N-[5-(trifluoromethyl)pyridin-2-yl]pyrido[2,3-b]pyrazin-8-amine]: < 1 µM.
Take `CCN(CC)CCN(CC)c1cc(C(F)(F)F)c(-c2cnc3c(Nc4ccc(C(F)(F)F)cn4)ccnc3n2)nn1` [Compound 99, N,N,N′-triethyl-N′-[5-(trifluoromethyl)-6-(8-{[5-(trifluoromethyl)pyridin-2-yl]amino}pyrido[2,3-b]pyrazin-3-yl)pyridazin-3-yl]ethane-1,2-diamine]: the IC50 is < 1 µM.
For `CCOC(=O)CN(C)c1cc(C(F)(F)F)c(-c2cnc3c(Nc4ccc(C(F)(F)F)cn4)ccnc3n2)nn1` [Compound 187, ethyl N-methyl-N-[5-(trifluoromethyl)-6-(8-{[5-(trifluoromethyl)pyridin-2-yl]amino}pyrido[2,3-b]pyrazin-3-yl)pyridazin-3-yl]glycinate], the IC50 is < 1 µM.
As to `FC(F)(F)c1ccc(Nc2ccnc3nc(-c4nnc(NCc5ccccn5)cc4C(F)(F)F)cnc23)nc1` [Compound 80, 3-{6-[(pyridin-2-ylmethyl)amino]-4-(trifluoromethyl)pyridazin-3-yl}-N-[5-(trifluoromethyl)pyridin-2-yl]pyrido[2,3-b]pyrazin-8-amine], the IC50 was < 1 µM.
Still for that read-out and setting: next, `CC1CCN1c1cc(C(F)(F)F)c(-c2cnc3c(Nc4ccc(C(F)(F)F)cn4)ccnc3n2)nn1` (stereo not shown) [Compound 189, 3-[6-(2-methylazetidin-1-yl)-4-(trifluoromethyl)pyridazin-3-yl]-N-[5-(trifluoromethyl)pyridin-2-yl]pyrido[2,3-b]pyrazin-8-amine]: < 1 µM; `OC1CCN(c2cc(C(F)(F)F)c(-c3cnc4c(Nc5ccc(C(F)(F)F)cn5)ccnc4n3)nn2)CC1` [Compound 196, 1-[5-(trifluoromethyl)-6-(8-{[5-(trifluoromethyl)pyridin-2-yl]amino}pyrido[2,3-b]pyrazin-3-yl)pyridazin-3-yl]piperidin-4-ol]: < 1 µM.
Still for that read-out and setting: next, `CN(C)CCN(C)c1cc(C(F)(F)F)c(-c2cnc3c(Nc4ccc(C(F)(F)F)cn4)ccnc3n2)nn1` [Compound 150, N,N,N′-trimethyl-N′-[5-(trifluoromethyl)-6-(8-{[5-(trifluoromethyl)pyridin-2-yl]amino}pyrido[2,3-b]pyrazin-3-yl)pyridazin-3-yl]ethane-1,2-diamine]: < 1 µM; `COc1nc(Nc2ccnc3nc(-c4nnccc4C(F)(F)F)cnc23)ccc1C(F)(F)F` [Compound 49, N-[6-methoxy-5-(trifluoromethyl)pyridin-2-yl]-3-[4-(trifluoromethyl)pyridazin-3-yl]pyrido[2,3-b]pyrazin-8-amine]: < 1 µM; `OCCCCCNc1cc(C(F)(F)F)c(-c2cnc3c(Nc4ccc(C(F)(F)F)cn4)ccnc3n2)nn1` [Compound 115, 5-{[5-(trifluoromethyl)-6-(8-{[5-(trifluoromethyl)pyridin-2-yl]amino}pyrido[2,3-b]pyrazin-3-yl)pyridazin-3-yl]amino}pentan-1-ol]: < 1 µM.
Same read-out and setting: next, `CCN(c1cc(C(F)(F)F)c(-c2cnc3c(Nc4ccc(C(F)(F)F)cn4)ccnc3n2)nn1)C(C)C` [Compound 128, 3-{6-[ethyl(isopropyl)amino]-4-(trifluoromethyl)pyridazin-3-yl}-N-[5-(trifluoromethyl)pyridin-2-yl]pyrido[2,3-b]pyrazin-8-amine]: < 1 µM; `N#Cc1cc(C(F)(F)F)c(-c2cnc3c(Nc4ccc(C(F)(F)F)cn4)ccnc3n2)nn1` [Compound 55, 5-(trifluoromethyl)-6-(8-{[5-(trifluoromethyl)pyridin-2-yl]amino}pyrido[2,3-b]pyrazin-3-yl)pyridazine-3-carbonitrile]: < 1 µM.

In the next assay the target is VR (Homo sapiens, UniProt Q8NER1).
Sequence of VR (Q8NER1 whole entry): as above
Assay: not given
To be noted: typical value, non-selective cation channel blocker binding to VR; cited from earlier work.
What is called Ki is the dissociation constant of the complex between target and ligand, obtained from inhibition or displacement. Regarding `Cl.Cl.Cl.Cl.Cl.Cl.N.N.N.N.N.N.N.N.N.N.N.N.N.N.[O-2].[O-2].[Ru+3].[Ru+3].[Ru+4]` [ruthenium red], the Ki is ≥ 140 µM.
